According to patent US5872280A, “Leukotriene antagonistic benzoic acid derivatives” (Bayer Aktiengesellschaft, priority 1995, dated 1999):

Columns and labels:
[1] = target: T1, ^3 H-LTD4 binding to guinea-pig lung membranes (Cavia porcellus, UniProt Q2NNR5); test: inhibition of ^3 H-LTD4 binding to guinea-pig lung membranes; conditions: for Ki: read-out: pKi values for the inhibition of ^3 H-LTD4 binding to guinea-pig lung membranes (converted)
T1 construct: from tissue; host or cells: guinea-pig lung membranes
T1 sequence (Q2NNR5 1-340): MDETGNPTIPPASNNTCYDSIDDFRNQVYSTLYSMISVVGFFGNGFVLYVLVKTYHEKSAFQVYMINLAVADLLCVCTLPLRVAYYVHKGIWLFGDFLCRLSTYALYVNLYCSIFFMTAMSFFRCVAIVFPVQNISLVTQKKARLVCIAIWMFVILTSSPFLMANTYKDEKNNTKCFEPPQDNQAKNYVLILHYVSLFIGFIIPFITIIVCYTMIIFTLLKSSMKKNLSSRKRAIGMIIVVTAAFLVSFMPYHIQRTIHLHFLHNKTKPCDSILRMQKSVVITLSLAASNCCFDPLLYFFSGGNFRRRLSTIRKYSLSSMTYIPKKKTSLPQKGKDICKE
Description: (§1) The representative preparations used to evaluate these compounds were the inhibition of ^3 H-LTD4 binding to guinea-pig lung membranes, as described in EP 494621, and the inhibition of both LTD4 -induced and LTC4 -induced contractions of guinea-pig tracheae as described by Tudhope et al., Eur. J. Pharmacol (1994) 264, 317-323.

[2] = target: T2, LTD4 -induced contractions of guinea-pig trachea (Cavia porcellus, UniProt Q2NNR5); test: inhibition of LTD4-induced contractions of guinea-pig trachea; format: cell-based; conditions: for Kb: read-out: pKB values for the inhibition of LTD4 -induced contractions of guinea-pig trachea (converted)
T2 construct: contractions of guinea-pig tracheae; from tissue; host or cells: guinea-pig trachea
T2 sequence (Q2NNR5 1-340): T1 sequence (Q2NNR5 1-340)
Description: as §1

[3] = target: T3, LTC4 -induced contractions of guinea-pig trachea (Cavia porcellus, UniProt H0VW05); test: inhibition of LTC4-induced contractions of guinea-pig trachea; format: cell-based; conditions: read-out: pKB values for the inhibition of LTC4 -induced contractions of guinea-pig trachea (converted)
T3 construct: contractions of guinea-pig tracheae; from tissue; host or cells: guinea-pig trachea
T3 sequence (H0VW05 1-317): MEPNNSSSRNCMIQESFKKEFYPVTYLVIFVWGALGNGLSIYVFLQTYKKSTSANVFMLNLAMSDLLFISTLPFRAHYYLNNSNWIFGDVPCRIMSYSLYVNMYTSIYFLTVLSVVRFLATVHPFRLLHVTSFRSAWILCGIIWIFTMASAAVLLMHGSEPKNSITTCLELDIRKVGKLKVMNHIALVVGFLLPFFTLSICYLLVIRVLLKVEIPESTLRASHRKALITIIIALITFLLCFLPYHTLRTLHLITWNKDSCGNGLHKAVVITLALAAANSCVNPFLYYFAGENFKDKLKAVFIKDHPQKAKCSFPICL
Description: as §1

[4] = tested on: both receptor types; conditions: Tudhope et al., Eur. J. Pharmacol. (1994) 264, 317-323; cited from earlier work

Structure (SMILES)	Kb [2] [nM]	Ki [1] [nM]	further results
O=C(O)CCCCNC(=O)c1cc(C(=O)O)ccc1OCCCc1ccc(OCCCCOc2ccccc2)cc1 [Example 7]	–	–	pKi values for the inhibition of ^3 H-LTD4 binding to guinea-pig lung membranes [1]: 5.7; pKB values for the inhibition of LTD4 -induced contractions of guinea-pig trachea [2]: 6.6
O=C(O)c1cccc(NC(=O)c2cc(C(=O)O)ccc2OCCCc2ccc(OCCCCOc3ccccc3)cc2)c1 [Example 8, N-(3-carboxyphenyl)-2-[3-{4-phenoxybutoxy}phenylpropoxy]-5-carboxybenzamide]	631	–	–
O=C(Cc1ccc(OCCCCOc2ccccc2)cc1)Nc1ccc(C(=O)O)cc1C(=O)O [Example 26]	1260	–	–
O=C(CCCc1ccc(OCCCCOc2ccccc2)cc1)Nc1ccc(C(=O)O)cc1C(=O)O [Example 24, 3-carboxy-4-([4-{4-phenoxybutoxy}phenyl]-1-oxobutyl)aminobenzoic acid]	50.1	501	–
O=C(O)CCCC(=O)Nc1cc(C(=O)O)ccc1OCCCc1ccc(OCCCCOc2ccccc2)cc1 [Example 11]	251	1580	Kb [3]: 1000 nM
CS(=O)(=O)Nc1ccc(SCCc2ccc(OCCCCOc3ccccc3)cc2)c(C(=O)NCCC(=O)O)c1 [Example 34, 5-aza-5-(5-methylsulfonylamino]-2-(3-[4-{4-phenoxybutoxy}phenyl]-1-thiapropyl)phenyl-4-oxopentanoic acid]	–	–	pKi values for the inhibition of ^3 H-LTD4 binding to guinea-pig lung membranes [1]: 5.7; pKB values for the inhibition of LTD4 -induced contractions of guinea-pig trachea [2]: 5.6
O=C(O)c1ccc(NC(=O)c2cc(C(=O)O)ccc2OCCCc2ccc(OCCCCOc3ccccc3)cc2)cc1 [Example 10]	316	–	Kb [3]: 126 nM
O=C(O)COc1cc(C(=O)O)ccc1NC(=O)CCc1ccc(OCCCCOc2ccccc2)cc1 [Example 16]	50.1	50.1	–
O=C(CCCc1ccc(OCCCCOc2ccccc2)cc1)Nc1cc(C(=O)O)cc(C(=O)O)c1 [Example 25, 3-carboxy-5-([4-{4-phenoxybutoxy}phenyl]-1-oxobutyl)aminobenzoic acid]	1580	1580	–
O=C(CCc1ccc(OCCCCOc2ccccc2)cc1)Nc1cc(C(=O)O)cc(C(=O)O)c1 [Example 23]	1260	3160	–
O=C(O)CCC(=O)Nc1cc(C(=O)O)ccc1OCCCc1ccc(OCCCCOc2ccccc2)cc1 [Example 13]	126	1000	–
O=C(O)CCCC(=O)c1cc(C(=O)O)ccc1NC(=O)CCc1ccc(OCCCCOc2ccccc2)cc1 [Example 21]	31.6	–	–
CCCCC/C=C\C\C=C/C=C/C=C/[C@@H](Sc1ccc(C(=O)O)cc1)[C@@H](O)CCCC(=O)O [Compound A]	–	–	activity at both receptor types [4]: comparable activity at both receptor types
O=C(O)CNC(=O)c1cc(C(=O)O)ccc1OCCCc1ccc(OCCCCOc2ccccc2)cc1 [Example 5]	79.4	398	Kb [3]: 1260 nM
O=C(O)CCCNC(=O)c1cc(C(=O)O)ccc1OCCCc1cccc(OCCCCOc2ccccc2)c1 [Example 36, 5-aza-6-(5-carboxy-2-(3-[3-{4-phenoxybutoxy}phenyl]propoxy)phenyl)-6-oxohexanoic acid]	–	25100	–
O=C(CCc1ccc(OCCCCOc2ccccc2)cc1)Nc1ccc(C(=O)O)cc1C(=O)O [Example 22]	50.1	251	–
O=C(O)CCCNC(=O)c1cc(C(=O)O)ccc1OCCCc1ccc(OCCCCOc2ccccc2)cc1 [Example 4]	126	794	Kb [3]: 63.1 nM
O=C(O)CCCCCOc1cc(C(=O)O)ccc1NC(=O)CCc1ccc(OCCCCOc2ccccc2)cc1 [Example 18]	79.4	631	–
O=C(O)CC(=O)Nc1cc(C(=O)O)ccc1OCCCc1ccc(OCCCCOc2ccccc2)cc1 [Example 14]	251	316	–
O=C(O)CCCOc1cc(C(=O)O)ccc1NC(=O)CCc1ccc(OCCCCOc2ccccc2)cc1 [Example 17]	251	398	–
CS(=O)(=O)Nc1ccc(OCCCc2ccc(OCCCCOc3ccccc3)cc2)c(C(=O)NCCC(=O)O)c1 [Example 31, 4-aza-5-(5-[methylsulfonylamino]-2-(3-[4-{4-phenoxybutoxy}phenyl]-propoxy)phenyl)-5-oxopentanoic acid]	3980	316	–
O=C(O)CCC(=O)Nc1cc(C(=O)O)ccc1SCCc1ccc(OCCCCOc2ccccc2)cc1 [Example 32, 5-aza-5-(5-carboxy-2-(3-[4-{4-phenoxybutoxy}phenyl]-1-thiapropyl) -phenyl)-4-oxopentanoic acid]	316	–	–
O=C(O)c1cc(NS(=O)(=O)c2ccccc2)ccc1OCCCc1ccc(OCCCCOc2ccccc2)cc1 [Example 30, 2-(3-[4-{4-phenoxybutoxy}phenyl]propoxy)-5-(phenylsulfonylamino)benzoic acid]	20000	5010	–
O=C(O)CCCC(=O)Nc1cc(C(=O)O)ccc1OCCc1ccc(OCCCCOc2ccccc2)cc1 [Example 15]	–	–	pKi values for the inhibition of ^3 H-LTD4 binding to guinea-pig lung membranes [1]: 5.3; pKB values for the inhibition of LTD4 -induced contractions of guinea-pig trachea [2]: 6.4
O=C(O)CCCCC(=O)Nc1cc(C(=O)O)ccc1OCCCc1ccc(OCCCCOc2ccccc2)cc1 [Example 12]	251	1000	Kb [3]: 501 nM
O=C(O)CCNC(=O)c1cc(C(=O)O)ccc1OCCCc1ccc(OCCCCOc2ccccc2)cc1 [Example 6]	79.4	251	Kb [3]: 79.4 nM
O=C(O)CCCSc1cc(C(=O)O)ccc1NC(=O)CCc1ccc(OCCCCOc2ccccc2)cc1 [Example 20]	316	–	–
CS(=O)(=O)Nc1ccc(OCCCc2ccc(OCCCCOc3ccccc3)cc2)c(C(=O)O)c1 [Example 29, 2-(3-[4-{4-phenoxybutoxy}phenyl]propoxy)-5-(methylsulfonylamino)benzoic acid]	2000	2000	–
O=C(O)CCCC(=O)Nc1cc(C(=O)O)ccc1SCCc1ccc(OCCCCOc2ccccc2)cc1 [Example 33]	–	–	pKB values for the inhibition of LTD4 -induced contractions of guinea-pig trachea [2]: 6.6
